Test results as given in US12129246B1, “Hydroquinazoline derivatives for the treatment of a disease or disorder” (Novartis AG, priority 2023, dated 2024).
Like-named read-outs stand apart in the source and are kept apart here.

Experiments:
human NPR1 = biological target: T1, human NPR1 (Homo sapiens, UniProt P16066); experiment: Cellular cGMP production assay, human NPR1 expressing CHO-K1 cells (CisBio HTRF); format: cell-based; details: for AC50: cGMP production, 30 min at 37° C., 12-point dose-response from 30 μM; for Human NPR1 Amax (% of ANP): maximum cGMP production as percentage of the maximum cGMP produced with ANP
T1 construct: host or cells: CHO-K1
T1 sequence (P16066 33-1061): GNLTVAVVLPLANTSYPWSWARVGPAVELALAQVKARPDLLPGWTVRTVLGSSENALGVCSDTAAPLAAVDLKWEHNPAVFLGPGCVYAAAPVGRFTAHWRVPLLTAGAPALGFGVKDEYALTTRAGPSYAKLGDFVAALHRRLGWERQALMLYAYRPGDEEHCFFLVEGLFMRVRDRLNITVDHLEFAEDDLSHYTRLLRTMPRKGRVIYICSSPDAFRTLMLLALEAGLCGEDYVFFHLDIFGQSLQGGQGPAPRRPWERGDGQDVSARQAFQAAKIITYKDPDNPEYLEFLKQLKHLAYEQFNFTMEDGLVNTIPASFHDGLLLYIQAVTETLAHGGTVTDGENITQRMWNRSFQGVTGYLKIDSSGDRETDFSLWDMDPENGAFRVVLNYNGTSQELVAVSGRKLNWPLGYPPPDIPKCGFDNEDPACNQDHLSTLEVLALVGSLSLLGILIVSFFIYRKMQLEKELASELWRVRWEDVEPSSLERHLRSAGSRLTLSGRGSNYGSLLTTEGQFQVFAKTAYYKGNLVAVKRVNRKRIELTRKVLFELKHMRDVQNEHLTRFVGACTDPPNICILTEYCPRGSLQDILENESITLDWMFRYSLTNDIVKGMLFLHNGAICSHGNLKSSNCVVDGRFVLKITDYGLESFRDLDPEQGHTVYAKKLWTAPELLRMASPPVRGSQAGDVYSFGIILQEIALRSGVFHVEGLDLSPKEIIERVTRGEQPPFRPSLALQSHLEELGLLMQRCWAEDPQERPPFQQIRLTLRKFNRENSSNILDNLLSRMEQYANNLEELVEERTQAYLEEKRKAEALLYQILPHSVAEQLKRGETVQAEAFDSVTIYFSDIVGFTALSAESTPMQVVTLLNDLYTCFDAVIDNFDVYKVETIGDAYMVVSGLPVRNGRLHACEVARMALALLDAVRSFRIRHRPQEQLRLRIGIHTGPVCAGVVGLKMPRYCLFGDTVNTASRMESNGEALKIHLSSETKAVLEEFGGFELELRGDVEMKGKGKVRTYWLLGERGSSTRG
Method: (§1) Cellular cGMP is a major second messenger that mediates cell activities and is synthesized by activated NPR1 triggered by binding of the natural ligand ANP. […] The assay was performed according to manufacturer's instructions with minor deviations. […] All compound stocks were diluted in PBS+0.1% BSA at 2-fold the final assay concentration. After addition of 10 μL/well of assay buffer (PBS+0.1% BSA+1 mM IBMX) and 10 μL/well of the compounds in different concentrations (12-point dose-response with 3-fold dilutions from a top concentration of 30 μM), the plate was incubated for 30 min at 37° C. to allow for cGMP production. In parallel, a standard curve using a calibrator (contained in the kit) was generated. The cells were lysed and a mix of cGMP-d2 and anti-cGMP-cryptate was added and incubated for 1 h at room temperature. The readout was performed using an Envision plate reader (PerkinElmer) with an excitation wavelength of 317 nm and an emission wavelength of 665 nm. cGMP concentration (Delta F [° %]) was calculated according to the following formulae: […]

monkey NPR1 = monkey NPR1 (Macaca fascicularis, UniProt A0A7N9DBT9); experiment: Cellular cGMP production assay, monkey NPR1 expressing CHO-K1 cells (CisBio HTRF); format: cell-based; details: for Monkey NPR1 Amax (% of ANP): maximum cGMP production as percentage of the maximum cGMP produced with ANP
Method: as §1

[1] = cGMP production, monkey NPR1 CHO-K1 cells, 30 min at 37° C., 12-point dose-response from 30 μM, read-out: Monkey NPR1 AC50

Chain of monkey NPR1 (A0A7N9DBT9 entry or part of it): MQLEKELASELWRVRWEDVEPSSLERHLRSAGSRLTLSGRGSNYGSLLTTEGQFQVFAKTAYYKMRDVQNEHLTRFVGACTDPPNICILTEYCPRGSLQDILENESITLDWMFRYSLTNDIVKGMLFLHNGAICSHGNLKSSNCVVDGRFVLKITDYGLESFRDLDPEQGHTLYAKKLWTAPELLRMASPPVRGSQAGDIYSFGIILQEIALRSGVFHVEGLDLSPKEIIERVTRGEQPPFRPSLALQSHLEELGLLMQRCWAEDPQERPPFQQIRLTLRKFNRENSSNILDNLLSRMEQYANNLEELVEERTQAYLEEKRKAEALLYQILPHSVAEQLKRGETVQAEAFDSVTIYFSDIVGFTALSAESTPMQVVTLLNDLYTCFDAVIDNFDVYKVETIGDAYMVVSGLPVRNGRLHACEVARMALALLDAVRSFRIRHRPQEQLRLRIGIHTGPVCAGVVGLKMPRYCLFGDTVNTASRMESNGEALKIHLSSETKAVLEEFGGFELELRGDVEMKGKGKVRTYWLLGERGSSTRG

| Compound | AC50 (human NPR1) [nM] | Human NPR1 Amax (% of ANP) (human NPR1) | AC50 (monkey NPR1; [1]) [nM] | Monkey NPR1 Amax (% of ANP) (monkey NPR1; monkey NPR1 CHO-K1 cells) | AC50 (monkey NPR1) [nM] |
| --- | --- | --- | --- | --- | --- |
| CC[C@@H](Nc1nc2c(c(N[C@@H](CN3CCC[C@H](C)C3)c3cnn(C(C)C)c3)n1)C[C@H](c1ccccc1)CC2)[C@H]1CC[C@H](C(=O)O)CC1 [Compound 22, (1R,4r)-4-((R)-1-(((R)-4-(((R)-1-(1-isopropyl-1H-pyrazol-4-yl)-2-((S)-3-methylpiperidin-1-yl)ethyl)amino)-6-phenyl-5,6,7,8-tetrahydroquinazolin-2-yl)amino)propyl)cyclohexane-1-carboxylic acid] | 114 | 102.676 % of ANP | 74 | 103.742 % of ANP |  |
| CC[C@@H](Nc1nc2c(c(N[C@@H](CN3CCCCC3)c3cnn(C)c3)n1)C[C@H](c1ccccc1)CC2)[C@H]1CC[C@H](C(=O)O)CC1 [Compound 56, (1R,4r)-4-((R)-1-(((R)-4-(((R)-1-(1-methyl-1H-pyrazol-4-yl)-2-(piperidin-1-yl)ethyl)amino)-6-phenyl-5,6,7,8-tetrahydroquinazolin-2-yl)amino)propyl)cyclohexane-1-carboxylic acid] | 198 | 102.955 % of ANP | 196 | 108.953 % of ANP |  |
| CC[C@@H](Nc1nc2c(c(N[C@@H](CN3C4CC5CC(C4)CC3C5)c3cnn(CC)c3)n1)C[C@H](c1ccccc1)CC2)[C@H]1CC[C@H](C(=O)O)CC1 [Compound 38, (1R,4r)-4-((R)-1-(((R)-4-(((R)-2-((1R,3R,5R,7R)-2-azaadamantan-2-yl)-1-(1-ethyl-1H-pyrazol-4-yl)ethyl)amino)-6-phenyl-5,6,7,8-tetrahydroquinazolin-2-yl)amino)propyl)cyclohexane-1-carboxylic acid] | 161 | 101.675 % of ANP | 83 | 101.007 % of ANP |  |
| CC[C@@H](Nc1nc2c(c(N[C@@H](CN3CCC[C@H](C)C3)c3cnn(C)c3)n1)C[C@H](c1ccccc1)CC2)[C@H]1CC[C@H](C(=O)O)CC1 [Compound 32, (1R,4r)-4-((R)-1-(((R)-4-(((R)-1-(1-methyl-1H-pyrazol-4-yl)-2-((S)-3-methylpiperidin-1-yl)ethyl)amino)-6-phenyl-5,6,7,8-tetrahydroquinazolin-2-yl)amino)propyl)cyclohexane-1-carboxylic acid] | 144 | 99.842 % of ANP | 84 | 92.720 % of ANP |  |
| CC[C@@H](N(C)c1nc2c(c(N[C@@H](CN3CCC[C@H](C)C3)c3cnn(C)c3)n1)C[C@H](c1ccccc1)CC2)C12CC(C(=O)O)(C1)C2 [Compound 44, 3-((R)-1-(methyl((R)-4-(((R)-1-(1-methyl-1H-pyrazol-4-yl)-2-((S)-3-methylpiperidin-1-yl)ethyl)amino)-6-phenyl-5,6,7,8-tetrahydroquinazolin-2-yl)amino)propyl)bicyclo[1.1.1]pentane-1-carboxylic acid] | 173 | 99.256 % of ANP | 102 | 107.199 % of ANP |  |
| CC[C@H]([C@H]1CC[C@H](C(=O)O)CC1)N(C)c1nc2c(c(N[C@@H](CN3CCCC[C@@H]3CO)c3cnn(C)c3)n1)C[C@H](c1ccccc1)CC2 [Compound 149, (1R,4r)-4-((R)-1-(((R)-4-(((R)-2-((R)-2-(hydroxymethyl)piperidin-1-yl)-1-(1-methyl-1H-pyrazol-4-yl)ethyl)amino)-6-phenyl-5,6,7,8-tetrahydroquinazolin-2-yl)(methyl)amino)propyl)cyclohexane-1-carboxylic acid] | 1140 | 130.209 % of ANP | 1020 | 164.167 % of ANP |  |
| CC[C@@H](N(C)c1nc2c(c(N[C@@H](CN3C4CCCC3CCC4)c3cnn(C)c3)n1)C[C@H](c1ccccc1F)CC2)C12CC(C(=O)O)(C1)C2 [Compound 41, 3-((R)-1-(((R)-4-(((R)-2-(9-azabicyclo[3.3.1]nonan-9-yl)-1-(1-methyl-1H-pyrazol-4-yl)ethyl)amino)-6-(2-fluorophenyl)-5,6,7,8-tetrahydroquinazolin-2-yl)(methyl)amino)propyl)bicyclo[1.1.1]pentane-1-carboxylic acid] | 168 | 96.843 % of ANP |  | 92.494 % of ANP | 144 |
| CC[C@H]([C@H]1CC[C@H](C(=O)O)CC1)N(C)c1nc2c(c(N[C@@H](CN3CCC[C@H](C)C3)c3cn(C)nc3F)n1)C[C@H](c1ccccc1)CC2 (stereo in doubt) [Compound 185, (1R,4r)-4-((R)-1-(((R)-4-(((S)-1-(3-fluoro-1-methyl-1H-pyrazol-4-yl)-2-((S)-3-methylpiperidin-1-yl)ethyl)amino)-6-phenyl-5,6,7,8-tetrahydroquinazolin-2-yl)(methyl)amino)propyl)cyclohexane-1-carboxylic acid] | 201 | 98.01 % of ANP |  |  |  |
| CC[C@H]([C@H]1CC[C@H](C(=O)O)CC1)N(C)c1nc2c(c(N[C@@H](CN3CCC[C@](O)(CC)C3)c3cnn(C)c3)n1)C[C@H](c1ccccc1)CC2 [Compound 178, (1R,4r)-4-((R)-1-(((R)-4-(((R)-2-((R)-3-ethyl-3-hydroxypiperidin-1-yl)-1-(1-methyl-1H-pyrazol-4-yl)ethyl)amino)-6-phenyl-5,6,7,8-tetrahydroquinazolin-2-yl)(methyl)amino)propyl)cyclohexane-1-carboxylic acid] | 362 | 112.78 % of ANP |  |  |  |
| CC[C@H]([C@H]1CC[C@H](C(=O)O)CC1)N(C)c1nc2c(c(N[C@@H](CN3CC[C@@H](OC)C3)c3cnn(C)c3)n1)C[C@H](c1ccccc1)CC2 [Compound 181, (1R,4r)-4-((R)-1-(((R)-4-(((R)-2-((R)-3-methoxypyrrolidin-1-yl)-1-(1-methyl-1H-pyrazol-4-yl)ethyl)amino)-6-phenyl-5,6,7,8-tetrahydroquinazolin-2-yl)(methyl)amino)propyl)cyclohexane-1-carboxylic acid] | 1810 | 101.57 % of ANP |  |  |  |
| CC[C@H]([C@H]1CC[C@H](C(=O)O)CC1)N(C)c1nc2c(c(N[C@@H](CN3CCCC4(CC4)C3)c3cnn(C)c3)n1)C[C@H](c1ccccc1)CC2 [Compound 180, (1R,4r)-4-((R)-1-(methyl((R)-4-(((R)-1-(1-methyl-1H-pyrazol-4-yl)-2-(5-azaspiro[2.5]octan-5-yl)ethyl)amino)-6-phenyl-5,6,7,8-tetrahydroquinazolin-2-yl)amino)propyl)cyclohexane-1-carboxylic acid] | 465 | 86.52 % of ANP |  |  |  |
| CC[C@H]([C@H]1CC[C@H](C(=O)O)CC1)N(C)c1nc2c(c(N[C@@H](CN3CCC[C@@](C)(O)C3)c3cnn(C)c3)n1)C[C@H](c1ccccc1)CC2 [Compound 182, (1R,4r)-4-((R)-1-(((R)-4-(((R)-2-((R)-3-hydroxy-3-methylpiperidin-1-yl)-1-(1-methyl-1H-pyrazol-4-yl)ethyl)amino)-6-phenyl-5,6,7,8-tetrahydroquinazolin-2-yl)(methyl)amino)propyl)cyclohexane-1-carboxylic acid] | 250 | 110.06 % of ANP |  |  |  |
